Results as given in US20190055590A1, “REGULARLY ARRANGED SPHEROIDS HAVING EQUAL SIZES AND USE THEREOF” (GAIA BioMedicine Inc., priority 2016, published 2019).

Tests used:
CT26 GFP+ cells [1] = conditions: 384-well plate, row with EDTA added (FIG. 1)
Method: 1. Proliferate CT26 GFP^+ cells to a subconfluent or confluent state, then remove the culture medium by suction, and then wash the cells with phosphate buffered saline (PBS, Invitrogen). 2. Remove PBS, then add a 0.05% trypsin solution [0.25% trypsin, 1 mmol/L EDTA•4Na (Invitrogen), diluted 5-fold with PBS], and allow the reaction under the conditions of 37° C., 5% CO2, and 95% air until cells are separated from the dish. 3. Add 10% FBS-RPMI 1640 to suspend the cells, and collect them. 4. Perform centrifugation (400 g, 3 minutes) at 4° C., and then re-suspend the precipitates (cells) in 10% FBS-RPMI 1640. 5. Mix a part of the cell suspension with 0.4% trypan blue solution (Sigma-Aldrich), and count live cells under a phase contrast microscope by using a cell counting plate (OneCell Counter, OneCell Inc.). 6. In the case of 2D culture, dilute the cell suspension with 10% FBS-0.1% DMSO-RPMI 1640 to 3.0×10^4 cells/mL, and inoculate the cells on a culture plate (ViewPlate-384, PerkinElmer) in a volume of 20 μL/well using BIOMEK (registered trademark) NXP (BECKMAN COULTER). 7. […]
1. Observe morphology of the spheroids by 2 types of methods, in a bright field and with fluorescence, by using IN Cell Analyzer 2000 (GE Healthcare) 72 Hours after the treatment with the drug. […] Evaluate the spheroids on the basis of the total fluorescence amount (density×area) obtained from GFP as an index. […]

CT26 GFP+ cells [2] = experiment: Tertiary screening: inhibition of spheroid formation, 2D vs 3D culture on 96 plate, ATP assay; assay type: cell-based; conditions: 96-well U-shaped bottom plate, pre-treatment or post-treatment
Method: Inoculation onto 96 Plate 1. […] 2. […] 3. […] 4. […] 5. […] 6. […] 7. […] 8. […] 1. Serially dilute a compound from the highest concentration of 20 μM at a common ratio of 1/10 for 7 doses (1% DMSO) with the medium. 2. Subsequently, add 10 μL of the serially diluted compound to the cell plate after the inoculation. 3. As for addition time of the drug, add the drug immediately after the inoculation (pre-treatment), or one day after the inoculation (post-treatment). On the final day of the evaluation, add CellTiter-Glo (registered trademark) 3D cell Viability Assay in the same volume as that of the culture volume, and 15 to 30 minutes thereafter, perform pipetting. Subsequently, transfer 120 μL of the cell lysate to Black Plate as required, and measure luminescence with a luminometer (Enspire etc.).

[3] = system: peritoneal dissemination (CT26 GFP+ cells); experiment: In vivo test: peritoneal dissemination after intraperitoneal transfer of CT26 GFP+ cells; set-up: species or system male BALB/c mice; conditions: mice, comparison with the vehicle group on the final day (Tukey-Kramer HSD test)
Source text: 1. Use male BALB/c mice (henceforth referred to as mouse or mice, 6 to 8 weeks old at the time of use). 2. Put the mice in a plastic cage (W 136 mm×L 208 mm×H 115 mm) of which bottom is covered with a sterilized floor covering (Paper Clean, Japan SLC, Inc.) in a number of mice not larger than 5 mice per one cage until they are used for the experiments. 3. Allow the mice to ingest solid feed CRF-1 (Oriental Yeast Co., Ltd.) and tap water of water bottle ad libitum during the breeding period. 4. Perform individual identification of the mice by ear punching at the time of arrival of the mice (identification number starts from 01). 1. […] 2. […] 3. […] 4. […] 5. Inject 0.2 mL of the cell suspension into the abdominal cavity of each mouse (2.0×10^6 cells/body) by using a syringe with 26 G hypodermic needle (TERUMO CORP.). […] Spread the extracted alimentary canal on a 100-mm dish, and obtain images of the total alimentary canal in a bright field and with fluorescence by using BZ9000. […] On the last day of the evaluation, sacrifice the mice by cervical dislocation, open up the abdomen by midline incision, and collect the ascites reserved in the abdominal cavity with absorbent cotton of which weight is measured beforehand. […]

Structure (SMILES)	spheroid formation (CT26 GFP+ cells [1])	ability to inhibit spheroid formation (CT26 GFP+ cells [2])	effect on peritoneal dissemination (fluorescence amount emitted from the alimentary canal extracted on the last evaluation day) ([3]; FIG. 6)	effect on peritoneal dissemination (weight of the ascites collected on the last evaluation day) ([3]; FIG. 7)
O=C(O)CN(CCN(CC(=O)O)CC(=O)O)CC(=O)O [EDTA]	no spheroid formation	–	–	–
O=C(NOC[C@H](O)CO)c1ccc(F)c(F)c1Nc1ccc(I)cc1F [PD0325901]	–	high ability to inhibit spheroid formation	confirmed in vivo	confirmed in vivo
